Laboratory results: patent US20150322403A1, “REGULATION OF EUKARYOTIC GENE EXPRESSION BY RIBOSOMAL READING-FRAME SWITCH EFFICIENCY CONTROL VIA REGULATORY ELEMENT UPSTREAM OF THE FRAMESHIFTING SITE” (NATIONAL CHUNG HSING UNIVERSITY, priority 2014, published 2015)

Assays:
[1] = tested on: theo-OFF2 element and SAH-sensing pseudoknot stimulator; test: -1 PRF activity, theo-OFF2 plus SAH-sensing pseudoknot, wheat germ lysate; assay type: biochemical; conditions: theo-OFF2 fused with SAH-dependent stimulator
Excerpt: We also fused theo-OFF2 with an SAH-dependent −1 PRF stimulator and examined the ligand-dependent −1 PRF activity in vitro using wheat germ lysate.

[2] = tested on: theo-OFF2 element; test: -1 PRF activity analysis, upstream theo-OFF2 element, wheat germ extract; conditions: wheat germ lysate, compared with reticulocyte lysate
[3] = tested on: theo-ON element; test: in vitro -1 PRF activity analysis, upstream theo-ON element, reticulocyte lysate; conditions: DU177 pseudoknot stimulator
[4] = tested on: theo-OFF1 element (theophylline aptamer); test: in vitro -1 PRF activity analysis, upstream theo-OFF1 element, reticulocyte lysate; conditions: DU177 pseudoknot stimulator, increasing amounts of theophylline
Excerpt: The boxed nucleotides were deleted in the negative control theo-mOFF1 element.

[5] = tested on: GlcT-OFF RNA element (RAT sequence) upstream of the slippery site; test: in vitro -1 PRF activity analysis, upstream GlcT-OFF element, reticulocyte lysate; assay type: biochemical; conditions: DU177 pseudoknot stimulator, increasing amounts of protein
Excerpt: (§1) Mfold was used to predict structures and free energies of the attenuator and anti-attenuator hairpins.
As the ribonucleic-antiterminator (RAT) sequence of Bacillus subtilis ptsGHI operon adopts an unstable internal loop conformation and can be stabilized by the binding of GlcT antiterminator protein (Langbein, I. et al, J. Mol. Biol. 293, 795-805, 1999), we designed a chimeric RNA element containing an RAT sequence (GlcT-OFF) with the 3′-side of RAT internal loop embedded in a stable hairpin stem and placed the chimeric RNA element upstream of the slippery site with a potent downstream −1 PRF stimulator (FIG. 3A). We rationalized that the engineered hairpin is the dominant conformation and serves as an upstream −1 PRF attenuator, whereas the addition of GlcT protein should disrupt the attenuator hairpin via RAT-GlcT complex formation and thus restore −1 PRF activity.
We then designed the second chimera to down-regulate the −1 PRF by the formation of an efficient attenuator hairpin promoted by the same RNA-protein interactions (FIG. 3A).

[6] = tested on: GlcT-ON RNA element; test: in vitro -1 PRF activity analysis, upstream GlcT-ON element, reticulocyte lysate; assay type: biochemical; conditions: DU177 pseudoknot stimulator, increasing amounts of protein
Excerpt: as §1
Therefore, the GlcT-ON RNA element is embedded with three potential RNA motifs; that is, an RAT internal loop, an anti-attenuator hairpin and an efficient −1 PRF attenuator hairpin with the component of the anti-attenuator hairpin being overlapped with the other two motifs. Without the GlcT protein, this anti-attenuator hairpin might be the dominant conformation. Upon GlcT protein addition, the equilibrium might be driven by RNA-protein interaction to disrupt the anti-attenuator hairpin stem and thus release its 3′-side to facilitate the formation of an efficient −1 PRF attenuator hairpin.
Together, these proof-of-principle experiments indicate that −1 PRF activity can be regulated in-trans via a set of RNA-protein interactions designed to control the formation of an upstream −1 PRF attenuation hairpin.

Nc1ncnc2c1ncn2[C@@H]1O[C@H](CSCC[C@H](N)C(=O)O)[C@@H](O)[C@H]1O [SAH]
-1 frameshifting efficiency in wheat germ lysate [1]: only mildly increased

Cn1c(=O)c2[nH]cnc2n(C)c1=O [theophylline]
dynamic range of theophylline-dependent -1 PRF activity, theo-OFF2 [2]: even higher dynamic range | -1 PRF activity of reporter with theo-ON [3]: down-regulation | in vitro -1 PRF activity of reporter harboring theo-OFF1 [4]: up-regulated

B1: GlcT protein: GlcT antiterminator protein binding the RAT sequence of Bacillus subtilis ptsGHI operon (protein, UniProt O31691 1-281, looked up)
PtsGHI operon antiterminator: MNGSFTVKKVLNNNVLIASHHKYSEVVLIGKGIGFGKKQDDVIEDKGYDKMFILKDEKEQKQFKKLLDYVDEKLVDISNDVIYHISNRTNHSLNEHIHIALTDHIAFAIKRQQQGFDMKNPFLMETQSLYPEEYQIAKEVIDMINEKAGLCLPEGEIGFIALHIHSALTNRPLSEVNQHSQLMAQLVEVIEDSFQMKVNKESVNYLRLIRHIRFTIERIKKEEPTKEPEKLMLLLKNEYPLCYNTAWKLIKILQQTLKKPVHEAEAVYLTLHLYRLTNKIS
in vitro -1 PRF efficiency of reporter containing GlcT-OFF [5]: up-regulated | in vitro -1 PRF activity of reporter containing GlcT-ON [6]: repressed
